Laboratory results: patent US20260294913A1, “COMBINATION THERAPY OF DACOMITINIB AND NINTEDANIB FOR PREVENTION OR TREATMENT OF PULMONARY FIBROSIS” (KOREA INSTITUTE OF RADIOLOGICAL & MEDICAL SCIENCES, priority 2023, published 2026)

Test system: mice with radiation-induced pulmonary fibrosis
Assay: Inhibitory effect on radiation-induced pulmonary fibrosis in mice (micro-CT, H&E and Masson's Trichrome staining)
Type: in vivo, C57BL/6 mice
Settings: first dose 1 h prior to SBRT (90 Gy), two weeks after radiation, as compared to untreated group
Method: Seven-week-old male C57BL/6 mice were divided into groups receiving nintedanib, which is an FDA-approved pulmonary fibrosis inhibitor, dacomitinib, which is an EGFR TKI, and a combination thereof, and orally administered one hour prior to stereotactic body radiation therapy (SBRT) (90 Gy, 4 mm collimator). Two weeks after radiation, the degree of pulmonary fibrosis and the inhibitory effect on radiation-induced lung injury were observed.
The nintedanib group received 60 mg/kg daily, the dacomitinib group received 10 mg/kg daily, and the combination group received 60 mg/kg of nintedanib and 10 mg/kg of dacomitinib. All drugs were orally administered daily. In addition, to analyze the degree of inflammatory response and the degree of fibrosis, H&E staining and Masson's Trichrome staining were performed and the grade of pulmonary fibrosis and the degree of collagen deposition are graphically represented in FIG. 2.

Row | Compound | degree of pulmonary fibrosis (dacomitinib alone, 10 mg/kg daily oral) | degree of pulmonary fibrosis (nintedanib alone, 60 mg/kg daily oral)
1 | COc1cc2ncnc(Nc3ccc(F)c(Cl)c3)c2cc1NC(=O)/C=C/CN1CCCCC1 [dacomitinib, (E)-N-(4-((3-chloro-4-fluorophenyl)amino)-7-methoxyquinazolin-6-yl)-4-(piperidin-1-yl) but-2-enamide] | reduced fibrosis | –
2 | COC(=O)c1ccc2c(c1)NC(=O)/C2=C(\Nc1ccc(N(C)C(=O)CN2CCN(C)CC2)cc1)c1ccccc1 [nintedanib, methyl (3Z)-3-{[(4-(methyl[(4-methylpiperazin-1-yl)acetyl]amino}phenyl)amino](phenyl)methylidene)-2-oxo-2,3-dihydro-1H-indole-6-carboxylate] | – | reduced fibrosis
